According to US20260265055A1, “Sulfine-Based Compounds for Generating Hydrogen Persulfide” (Brown University, priority 2023, published 2026):

Tests used:
[1] = SSP4 fluorescence assay to determine generation of H2S2 in buffer
Source text: To further evaluate the specificity of TTS in converting H2S to H2S2, SSP4 was used to monitor the formation of H2S2 in this reaction and the results were compared with a series of controls. Details of the SSP4 experiments are provided later herein. SSP4 is a well-established fluorescent sensor for sulfane sulfurs including H2S2. See Shieh, M. et al., Shining a light on SSP4: a comprehensive analysis and biological applications for the detection of sulfane sulfurs. Redox Biol. 2022, 56, 102433. […] Without wishing to be bound by scientific theory, it is believed that thiols would compete with SSP4 to react with H2S2, thereby causing decreased signals.
SSP4 was dissolved in DMSO to obtain a 200 μM stock solution. CTAB was dissolved in ethanol to yield a 2 mM stock solution. TTS and TT were dissolved in DMSO to make 1 mM stock solutions. Na2S, Na2S2, and L-cysteine were prepared in MilliQ H2O to obtain stock solutions at 2 mM, 1 mM, and 4 mM, respectively. 50 mM PBS buffer was added to individual wells of a black polystyrene, flat-bottomed clear 96-well plate, followed by TTS (25 μM) or TT (25 μM), and Na2S (50 μM), cysteine (100 μM), or Na2S2 (25 μM). For the interference assay, TTS or TT (25 μM) were added to wells with or without Na2S (50 μM). Samples were mixed by pipetting up and down and incubated in the dark at room temperature (rt) for 30 min. Next, CTAB (50 μM) was added to all wells followed by SSP4 (5 μM), and samples were mixed by pipetting up and down. The final volume was 200 μL in each well. Samples were then incubated in the dark at room temperature for another 30 min before being measured on a Molecular Devices SpectraMax iD3 Multi-Mode Microplate Reader (emission 525 nm; excitation 485 nm; integration time […], low PMT sensitivity, attenuation 1, read height 1.00 mm).

HeLa cells = test: Live cell imaging of H2S2 formation with SSP4; type: cell-based; details: 30 min
Method: HeLa cells were seeded at ~7000 cells/well in a 96-well clear flat-bottomed BioLite plate (ThermoFisher Scientific, #130188) in DMEM/F12 (1:1) (Gibco, Invitrogen, #11330-032) medium supplemented with 10% fetal bovine serum (FBS) at 37° C., 5% CO2 overnight.
Preparation before cell treatment: Na2S and Na2S2 stocks were prepared at 10 mM in sterile 1×PBS. TTS and TT were prepared at 10 mM concentrations in DMSO. They were then diluted to 50 μM concentrations in serum-free Fluorobrite DMEM in individual Eppendorf tubes (0.5% DMSO). Na2S (final concentration=100 μM) was added to the Eppendorf tube containing Fluorobrite DMEM and TTS or TT immediately before being added to the cells. Compounds were mixed by pipetting up and down prior to cell addition.
Cell treatment: Culturing media was aspirated from all wells, and cells were washed twice with 1×PBS. Compounds were added to cells (200 μL/well) and incubated for 30 min at 37° C., 5% CO2. While cells were incubating, SSP4 treatment was prepared by first adding 5 mM CTAB in ethanol to Fluorobrite DMEM followed by 6.125 mM SSP4 in DMSO to final concentrations of 100 μM and 5 μM, respectively, in a tube. The final volume was 5 mL (0.08% DMSO). Compounds were mixed by pipetting up and down prior to cell addition. After incubation, media was aspirated, and cells were washed twice with 1×PBS. SSP4 treatment was added to all wells (100 μL/well), and cells were incubated for 30 min at 37° C., 5% CO2 for 30 min. Media was then aspirated, and cells were washed three times with 1×PBS. Fluorobrite DMEM was added to all wells before imaging on the Keyence All-in-One Fluorescence Microscope (BZ-X810) (excitation: 470/40 nm; emission: 525/50 nm).
As shown in FIGS. 4(A)-(D), HeLa cells were treated with TTS, TTS+H2S, or TT for 30 min before the fluorescent sensor SSP4 was applied to the cells to monitor the formation of H2S2. […] Na2S2 was used as the positive control in this study (FIG. 4D). Other control studies including TT+H2S, H2S only, and SSP4 only were also performed. […] FIG. 4H is a graph of fluorescence intensities of SSP4 staining. Data are mean values ±SEM calculated using ImageJ. (n=9, where three different images were obtained from each of three samples and quantified).

COC(=O)c1ccc(=S=O)sc1 [TTS, 2H-thiopyran-2-thione sulfine]
SSP4 fluorescence in interference experiments with thiols ([1]; 25 μM TTS + 50 μM Na2S + 200 μM Cys or 1 mM GSH): decreased but still significant fluorescence
SSP4 fluorescence response (H2S2 formation) ([1]; 25 μM compound + 50 μM Na2S (H2S), PBS, SSP4 5 μM): significant fluorescence response
SSP4 fluorescence response (sulfane sulfur formation) ([1]; 25 μM compound + 100 μM Cys, SSP4 5 μM): No fluorescence
SSP4 fluorescence response (H2S2 formation) ([1]; 25 μM compound only, SSP4 5 μM): No fluorescence
SSP4 fluorescence in HeLa cells (HeLa cells; compound 50 μM + Na2S 100 μM): Significant green fluorescence
SSP4 fluorescence in HeLa cells (HeLa cells; compound only): did not show obvious fluorescence
